Measured values as given in ChEMBL document CHEMBL3751766, “Synthesis and evaluation of atorvastatin esters as prodrugs metabolically activated by human carboxylesterases” (Bioorg Med Chem Lett, 2016).

What was measured:
Liver carboxylesterase 1 = target: T1, Liver carboxylesterase 1 (Homo sapiens, UniProt P23141); assay: Prodrug activation in human liver microsomes assessed as CES1-mediated compound hydrolysis at […] after 90 mins by HPLC analysis; conditions: 1.5 h
T1 sequence (P23141 whole entry): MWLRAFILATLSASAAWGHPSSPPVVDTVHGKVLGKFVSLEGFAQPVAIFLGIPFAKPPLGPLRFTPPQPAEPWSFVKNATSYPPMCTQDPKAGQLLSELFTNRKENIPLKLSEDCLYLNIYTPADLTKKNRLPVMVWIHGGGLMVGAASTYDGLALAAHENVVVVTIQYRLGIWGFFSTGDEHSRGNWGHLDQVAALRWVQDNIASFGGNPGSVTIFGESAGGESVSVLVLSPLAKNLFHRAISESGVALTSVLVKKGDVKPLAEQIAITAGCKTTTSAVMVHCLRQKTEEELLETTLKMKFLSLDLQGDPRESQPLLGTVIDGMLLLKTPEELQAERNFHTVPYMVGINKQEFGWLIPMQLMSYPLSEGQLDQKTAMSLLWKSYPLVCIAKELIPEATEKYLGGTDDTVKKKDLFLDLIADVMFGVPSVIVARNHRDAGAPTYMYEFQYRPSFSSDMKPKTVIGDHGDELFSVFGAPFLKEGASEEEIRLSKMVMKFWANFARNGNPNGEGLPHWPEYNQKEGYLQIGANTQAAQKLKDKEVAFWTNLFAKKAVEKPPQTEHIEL

Cocaine esterase = target: T2, Cocaine esterase (Homo sapiens, UniProt O00748); assay: Prodrug activation in human intestine microsomes assessed as CES2-mediated hydrolysis of compound at […] after 90 mins by HPLC analysis; conditions: 1.5 h
T2 sequence (O00748 whole entry): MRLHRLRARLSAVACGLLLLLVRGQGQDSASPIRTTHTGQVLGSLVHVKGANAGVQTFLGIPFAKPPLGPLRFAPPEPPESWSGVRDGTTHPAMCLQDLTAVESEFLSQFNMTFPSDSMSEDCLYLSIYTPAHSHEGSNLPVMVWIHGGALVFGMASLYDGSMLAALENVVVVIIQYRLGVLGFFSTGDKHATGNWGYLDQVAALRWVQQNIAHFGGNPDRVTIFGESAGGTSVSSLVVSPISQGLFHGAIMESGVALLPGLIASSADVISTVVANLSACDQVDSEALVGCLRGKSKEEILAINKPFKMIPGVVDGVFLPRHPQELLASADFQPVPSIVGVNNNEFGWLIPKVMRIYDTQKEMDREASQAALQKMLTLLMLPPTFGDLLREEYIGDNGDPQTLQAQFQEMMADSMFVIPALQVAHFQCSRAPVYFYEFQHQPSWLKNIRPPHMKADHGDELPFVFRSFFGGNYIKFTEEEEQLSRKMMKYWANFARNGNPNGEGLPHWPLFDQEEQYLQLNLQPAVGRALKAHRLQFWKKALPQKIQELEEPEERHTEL

[1] = Drug metabolism ratio of CES1 mediated compound hydrolysis in human liver microsomes to CES2-mediated compound hydrolysis in human intestine microsomes; assay type: ADME
[2] = Prodrug activation assessed as human carboxylesterase 1b-mediated compound hydrolysis at […] after 30 mins by HPLC analysis; conditions: isolated protein, 0.5 h
[3] = Prodrug activation assessed as human carboxylesterase1c-mediated compound hydrolysis at […] after 30 mins by HPLC analysis; conditions: isolated protein, 0.5 h
[4] = target: T3, Arylacetamide deacetylase (Homo sapiens, UniProt P22760); assay: Prodrug activation assessed as human AADAC-mediated compound hydrolysis at […] after 30 mins by HPLC analysis; conditions: 0.5 h
T3 sequence (P22760 whole entry): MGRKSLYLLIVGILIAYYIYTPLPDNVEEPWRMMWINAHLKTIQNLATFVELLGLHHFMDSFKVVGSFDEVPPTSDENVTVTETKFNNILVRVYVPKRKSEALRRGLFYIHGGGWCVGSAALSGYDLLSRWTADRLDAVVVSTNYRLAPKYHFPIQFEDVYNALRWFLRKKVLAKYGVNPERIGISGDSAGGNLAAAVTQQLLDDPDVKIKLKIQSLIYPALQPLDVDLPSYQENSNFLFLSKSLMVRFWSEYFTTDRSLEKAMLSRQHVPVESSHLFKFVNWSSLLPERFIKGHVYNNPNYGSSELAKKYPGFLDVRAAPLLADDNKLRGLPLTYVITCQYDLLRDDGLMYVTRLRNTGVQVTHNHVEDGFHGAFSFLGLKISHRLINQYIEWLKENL

Compound | Drug metabolism (Liver carboxylesterase 1) | Drug metabolism (Cocaine esterase) | Ratio [1] | Drug metabolism [2] | Drug metabolism [3] | Drug metabolism [4]
CC(C)c1c(C(=O)Nc2ccccc2)c(-c2ccccc2)c(-c2ccc(F)cc2)n1CC[C@@H](O)C[C@@H](O)CC(=O)OC1CCCCC1 | metabolite_detected | metabolite_detected | 4.9 | – | – | –
CC(C)c1c(C(=O)Nc2ccccc2)c(-c2ccccc2)c(-c2ccc(F)cc2)n1CC[C@@H]1C[C@@H](O)CC(=O)O1 [ATORVASTATIN LACTONE] | metabolite_notdetected | metabolite_notdetected | 1.7 | – | – | –
CCCCCCCCCCOC(=O)C[C@H](O)C[C@H](O)CCn1c(-c2ccc(F)cc2)c(-c2ccccc2)c(C(=O)Nc2ccccc2)c1C(C)C | metabolite_detected | metabolite_detected | 4.4 | – | – | –
COc1ccc(OC(=O)C[C@H](O)C[C@H](O)CCn2c(-c3ccc(F)cc3)c(-c3ccccc3)c(C(=O)Nc3ccccc3)c2C(C)C)cc1 | metabolite_detected | metabolite_detected | 3.4 | – | – | –
CCCCCCCCOC(=O)C[C@H](O)C[C@H](O)CCn1c(-c2ccc(F)cc2)c(-c2ccccc2)c(C(=O)Nc2ccccc2)c1C(C)C | metabolite_detected | metabolite_detected | 5.3 | – | – | –
CCCCOC(=O)C[C@H](O)C[C@H](O)CCn1c(-c2ccc(F)cc2)c(-c2ccccc2)c(C(=O)Nc2ccccc2)c1C(C)C | metabolite_detected | metabolite_detected | 5.7 | – | – | –

Now from value to molecule:

Drug metabolism (Liver carboxylesterase 1) | Drug metabolism (Cocaine esterase) | Ratio [1] | Drug metabolism [2] | Drug metabolism [3] | Drug metabolism [4] | Compound
metabolite_detected | metabolite_detected | 30.5 | metabolite_detected | metabolite_detected | metabolite_detected | COC(=O)C[C@H](O)C[C@H](O)CCn1c(-c2ccc(F)cc2)c(-c2ccccc2)c(C(=O)Nc2ccccc2)c1C(C)C
metabolite_detected | metabolite_detected | 3.8 | – | – | – | CC(C)c1c(C(=O)Nc2ccccc2)c(-c2ccccc2)c(-c2ccc(F)cc2)n1CC[C@@H](O)C[C@@H](O)CC(=O)Oc1ccccc1
metabolite_detected | metabolite_detected | 1.9 | metabolite_detected | metabolite_detected | metabolite_detected | CC(C)c1c(C(=O)Nc2ccccc2)c(-c2ccccc2)c(-c2ccc(F)cc2)n1CC[C@@H](O)C[C@@H](O)CC(=O)Oc1ccc(F)cc1
metabolite_detected | metabolite_detected | 9.1 | – | – | – | CC(C)c1c(C(=O)Nc2ccccc2)c(-c2ccccc2)c(-c2ccc(F)cc2)n1CC[C@@H](O)C[C@@H](O)CC(=O)OCc1ccccc1
metabolite_detected | metabolite_detected | 5.1 | metabolite_detected | metabolite_detected | metabolite_detected | C=CCOC(=O)C[C@H](O)C[C@H](O)CCn1c(-c2ccc(F)cc2)c(-c2ccccc2)c(C(=O)Nc2ccccc2)c1C(C)C
metabolite_detected | metabolite_detected | 40.1 | – | – | – | CCOC(=O)C[C@H](O)C[C@H](O)CCn1c(-c2ccc(F)cc2)c(-c2ccccc2)c(C(=O)Nc2ccccc2)c1C(C)C
